Values of other authors in patent US20030191121A1, “Piperazine carboxamide intermediates of HIV protease inhibitors and processes for their preparation” (priority 2001, published 2003).

System: HIV
Settings: HIV-infected patients, in combination with nucleoside reverse transcriptase inhibitors

SMILES: CC(C)(C)NC(=O)[C@@H]1CN(Cc2cccnc2)CCN1C[C@@H](O)C[C@@H](Cc1ccccc1)C(=O)N[C@H]1c2ccccc2C[C@H]1O [Indinavir, indinavir]
- reducing HIV viral loads and increasing CD4 cell counts: highly effective
